Data from ChEMBL document CHEMBL1201862, “PubChem BioAssay data set” (2004).
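Grown in 96-well plates, cells were treated for 48 hours with each compound at five concentrations. Insufficient inhibition: endpoint recorded as highest concentration tested. GI50: concentration for 50% inhibition of growth.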 Active and inactive are the calls of the source. Rule as the data show it: active = GI50 up to about 1.1 µM and inactive = higher.

Experiments:
Assay in all cases: NCI anticancer screen, dose series, 48 h
[1] = tested on: NCI-H460
[2] = tested on: M14
[3] = tested on: NCI-H23
[4] = tested on: MOLT-4
[5] = tested on: EKVX
[6] = tested on: OVCAR-8
[7] = tested on: COLO 205
[8] = tested on: HCT-116
[9] = tested on: UACC-257
[10] = tested on: HCC 2998
[11] = tested on: NCI-H226
[12] = tested on: Malme-3M
[13] = tested on: SK-MEL-28
[14] = tested on: SNB-19
[15] = tested on: KM12
[16] = tested on: SF-295
[17] = tested on: CAKI-1
[18] = tested on: HOP-92

Measured: GI50

CC(CCC(=O)O)c1ccc(Br)cc1 (stereo unspecified)
inactive: [1] > 100 µM | [2] > 100 µM | [3] > 100 µM | [4] > 100 µM | [5] > 100 µM | [6] > 100 µM | [7] > 100 µM | [8] > 100 µM | [9] > 100 µM | [10] > 100 µM | [11] > 100 µM | [12] > 100 µM | [13] > 100 µM | [14] > 100 µM | [15] > 100 µM | [16] > 100 µM | [17] > 100 µM

CCCCCCCCCCCOc1ccc(C(=O)C(=O)c2ccc(OCCCCCCCCCCC)c(OCCCCCCCCCCC)c2)cc1OCCCCCCCCCCC
inactive: [1] > 100 µM | [2] > 100 µM | [3] > 100 µM | [4] 80.7 µM | [5] > 100 µM | [6] > 100 µM | [7] > 100 µM | [8] > 100 µM | [9] > 100 µM | [10] > 100 µM | [11] > 100 µM | [12] > 100 µM | [13] > 100 µM | [14] > 100 µM | [15] > 100 µM | [16] > 100 µM | [17] > 100 µM

CCN(CC)c1oc(N(CC)CC)c(C(=O)Nc2ccccn2)c(=O)c1C(C)=O
inactive: [1] > 100 µM | [2] > 100 µM | [3] > 100 µM | [4] > 100 µM | [5] > 100 µM | [6] > 100 µM | [7] > 100 µM | [8] > 100 µM | [18] > 100 µM | [11] > 100 µM | [12] > 100 µM | [13] > 100 µM | [14] > 100 µM | [15] > 100 µM | [17] > 100 µM

COc1cc(OC)c(/C=C2\N=C(C)N(Nc3nnc(NN4C(=O)/C(=C/c5c(OC)cc(OC)cc5OC)N=C4C)c4ccccc34)C2=O)c(OC)c1
inactive: [1] > 100 µM | [2] > 100 µM | [3] > 100 µM | [4] > 100 µM | [5] 94.4 µM | [6] > 100 µM | [7] > 100 µM | [8] > 100 µM | [18] > 100 µM | [9] > 100 µM | [11] > 100 µM | [13] > 100 µM | [14] > 100 µM | [15] > 100 µM | [16] 93.3 µM

CCOC(C[C@H](O[Si](C)(C)C(C)(C)C)[C@H]1COC(=S)S1)OCC
inactive: [1] 53.6 µM | [2] 52.1 µM | [3] 53.5 µM | [4] 34.7 µM | [5] > 100 µM | [6] 66.5 µM | [7] 66.1 µM | [8] 39.2 µM | [9] 35 µM | [10] > 100 µM | [11] 85.1 µM | [12] > 100 µM | [13] > 100 µM | [14] 28.8 µM | [15] 50.7 µM | [16] 37.7 µM

CCCCC(N)CSSCC(N)CCCC (stereo unspecified)
inactive: [1] 36.7 µM | [2] 17.9 µM | [3] 24.8 µM | [4] 19.2 µM | [5] 25.2 µM | [6] 37.8 µM | [7] 52.7 µM | [8] 17.8 µM | [9] 20.5 µM | [10] 19 µM | [11] 23.5 µM | [12] 18.1 µM | [13] 17.7 µM | [14] 58.5 µM | [15] 49.2 µM | [16] 33.3 µM
